Molecular target: T1, hFXR (Homo sapiens, UniProt Q96RI1)
T1 construct: expressed in transfected cells; host or cells: CV-1 cells
T1 sequence (Q96RI1 1-486): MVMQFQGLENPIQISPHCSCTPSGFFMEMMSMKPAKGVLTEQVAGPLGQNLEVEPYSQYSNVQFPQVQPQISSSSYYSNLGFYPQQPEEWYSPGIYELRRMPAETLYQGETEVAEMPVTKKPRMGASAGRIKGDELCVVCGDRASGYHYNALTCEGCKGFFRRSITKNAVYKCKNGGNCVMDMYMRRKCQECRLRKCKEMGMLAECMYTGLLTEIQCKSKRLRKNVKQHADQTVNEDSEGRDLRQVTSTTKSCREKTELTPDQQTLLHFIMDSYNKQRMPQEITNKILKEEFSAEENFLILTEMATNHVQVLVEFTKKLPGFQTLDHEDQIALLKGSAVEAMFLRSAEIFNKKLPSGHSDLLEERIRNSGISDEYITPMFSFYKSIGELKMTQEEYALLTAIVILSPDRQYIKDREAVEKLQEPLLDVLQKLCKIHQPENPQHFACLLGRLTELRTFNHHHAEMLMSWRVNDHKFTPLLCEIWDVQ
T1 sequence (P19793 1-462 partner): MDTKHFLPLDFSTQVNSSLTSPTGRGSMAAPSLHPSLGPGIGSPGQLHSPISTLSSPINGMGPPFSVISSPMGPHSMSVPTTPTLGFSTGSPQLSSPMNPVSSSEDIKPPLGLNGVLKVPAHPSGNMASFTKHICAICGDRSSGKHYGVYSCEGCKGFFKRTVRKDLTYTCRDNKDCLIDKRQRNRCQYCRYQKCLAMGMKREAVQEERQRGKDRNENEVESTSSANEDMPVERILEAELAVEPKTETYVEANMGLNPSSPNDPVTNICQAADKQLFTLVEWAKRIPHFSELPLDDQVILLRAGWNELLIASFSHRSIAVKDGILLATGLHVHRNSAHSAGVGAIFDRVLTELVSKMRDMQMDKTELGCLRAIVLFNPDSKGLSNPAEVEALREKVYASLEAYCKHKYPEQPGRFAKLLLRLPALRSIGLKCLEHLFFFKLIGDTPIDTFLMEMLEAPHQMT
Test: In Vitro FXR Assay (TK): TK-ECRE-luc reporter in transfected CV-1 cells
Format: cell-based
Conditions: 18 hrs, luminescence, maximum efficacy of <25% of the Fexarmine control classified as '+'
In short: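 CV-1, transient co-transfection: hFXR + hRXR + TK-ECRE-luc + pCMX-YFP; charcoal-stripped serum. 18 h post-transfection, DMSO serial dilutions of cpd added; 18 h incubation; lysis, luminescence.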

| SMILES | EC50 [nM] |
| --- | --- |
| COc1ccc([C@H]2CC[C@H](CN(c3cccc(-c4cnc(C(C)C)s4)c3)C(=O)[C@H]3CC[C@H](OC(=O)N4CC(O)C4)CC3)CC2)nc1C [Compound 7.05, trans-4-((3-(2-Isopropylthiazol-5-yl)phenyl)((trans-4-(5-methoxy-6-methylpyridin-2-yl)cyclohexyl)methyl)carbamoyl)cyclohexyl 3-hydroxyazetidine-1-carboxylate] | ≤ 250 |
| COc1ccc([C@H]2CC[C@H](CN(c3cc(-c4cnc(C5CC5)s4)ccn3)C(=O)[C@H]3CC[C@H](OC(=O)N4CC(O)C4)CC3)CC2)nc1C [Compound 7.06, trans-4-((4-(2-Cyclopropylthiazol-5-yl)pyridin-2-yl)((trans-4-(5-methoxy-6-methylpyridin-2-yl)cyclohexyl)methyl)carbamoyl)cyclohexyl 3-hydroxyazetidine-1-carboxylate] | ≤ 250 |
| COc1ccc([C@H]2CC[C@H](CN(c3cc(-c4cnc(C(C)C)s4)ccn3)C(=O)[C@H]3CC[C@H](OC(=O)N4CC(O)C4)CC3)CC2)nc1C [Compound 7.07, trans-4-((4-(2-Isopropylthiazol-5-yl)pyridin-2-yl)((trans-4-(5-methoxy-6-methylpyridin-2-yl)cyclohexyl)methyl)carbamoyl)cyclohexyl 3-hydroxyazetidine-1-carboxylate] | ≤ 250 |
| COc1ccc([C@H]2CC[C@H](CN(c3cc(-c4cnc(C5CC5)s4)ccn3)C(=O)[C@H]3CC[C@H](OC(=O)N4CC(O)C4)CC3)CC2)cc1C#N [Compound 7.08, trans-4-(((trans-4-(3-Cyano-4-methoxyphenyl)cyclohexyl)methyl)(4-(2-cyclopropylthiazol-5-yl)pyridin-2-yl)carbamoyl)cyclohexyl 3-hydroxyazetidine-1-carboxylate] | ≤ 250 |
| COc1ccc([C@H]2CC[C@H](CN(c3cccc(-c4cnc(C5CC5)s4)c3)C(=O)[C@H]3CC[C@H](OC(=O)N4CC(O)C4)CC3)CC2)nc1C#N [Compound 7.09, trans-4-(((trans-4-(6-Cyano-5-methoxypyridin-2-yl)cyclohexyl)methyl)(3-(2-cyclopropylthiazol-5-yl)phenyl)carbamoyl)cyclohexyl 3-hydroxyazetidine-1-carboxylate] | ≤ 250 |
| COc1ccc([C@H]2CC[C@H](CN(c3cc(-c4cnc(C5CC5)s4)ccn3)C(=O)[C@H]3CC[C@H](OC(=O)N4CC(O)C4)CC3)CC2)nc1C#N [Compound 7.10, trans-4-(((trans-4-(6-Cyano-5-methoxypyridin-2-yl)cyclohexyl)methyl)(4-(2-cyclopropylthiazol-5-yl)pyridin-2-yl)carbamoyl)cyclohexyl 3-hydroxyazetidine-1-carboxylate] | ≤ 250 |
| COc1ccc([C@H]2CC[C@H](CN(c3cccc(-c4cnc(C5CC5)s4)c3)C(=O)[C@H]3CC[C@H](OC(=O)N4CC(O)C4)CC3)CC2)nc1C [Compound 7.11, trans-4-((3-(2-Cyclopropylthiazol-5-yl)phenyl)((trans-4-(5-methoxy-6-methylpyridin-2-yl)cyclohexyl)methyl)carbamoyl)cyclohexyl 3-hydroxyazetidine-1-carboxylate] | ≤ 250 |
| COc1ccc(C23CCC(CN(c4cccc(-c5cnn(C6CC6)c5)c4)C(=O)[C@H]4CC[C@H](OC(=O)N5CC(O)C5)CC4)(CC2)CC3)cc1C [Compound 7.12, 4-((3-(1-Cyclopropyl-1H-pyrazol-4-yl)phenyl)((4-(4-methoxy-3-methylphenyl)bicyclo[2.2.2]octan-1-yl)methyl)carbamoyl)cyclohexyl trans-3-hydroxyazetidine-1-carboxylate] | ≤ 250 |
| CN(C)c1ccc([C@H]2CC[C@H](CN(c3cccc(-c4cnn(C5CC5)c4)c3)C(=O)[C@H]3CC[C@H](OC(=O)N4CC(O)C4)CC3)CC2)cn1 [Compound 7.13, trans-4-((3-(1-Cyclopropyl-1H-pyrazol-4-yl)phenyl)((trans-4-(6-(dimethylamino)pyridin-3-yl)cyclohexyl)methyl)carbamoyl) cyclohexyl 3-hydroxyazetidine-1-carboxylate] | ≤ 250 |
| COc1ccc([C@H]2CC[C@H](CN(c3cccc(-c4cnn(C(C)C)c4)c3)C(=O)[C@H]3CC[C@H](OC(=O)N4CC(O)C4)CC3)CC2)cc1C [Compound 7.14, trans-4-((3-(1-Isopropyl-1H-pyrazol-4-yl)phenyl)((trans-4-(4-methoxy-3-methylphenyl)cyclohexyl)methyl)carbamoyl)cyclohexyl 3-hydroxyazetidine-1-carboxylate] | ≤ 250 |
| COc1ccc([C@H]2CC[C@H](CN(c3cccc(-c4cnn(C(C)C)c4)c3)C(=O)[C@H]3CC[C@H](OC(=O)N4CC(O)C4)CC3)CC2)nc1C [Compound 7.15, trans-4-((3-(1-Isopropyl-1H-pyrazol-4-yl)phenyl)((trans-4-(5-methoxy-6-methylpyridin-2-yl)cyclohexyl)methyl)carbamoyl)cyclohexyl 3-hydroxyazetidine-1-carboxylate] | ≤ 250 |
| COc1ccc([C@H]2CC[C@H](CN(c3cc(-c4cnn(C(C)C)c4)ccn3)C(=O)[C@H]3CC[C@H](OC(=O)N4CC(O)C4)CC3)CC2)cc1C [Compound 7.16, trans-4-((4-(1-Isopropyl-1H-pyrazol-4-yl)pyridin-2-yl)((trans-4-(4-methoxy-3-methylphenyl)cyclohexyl)methyl)carbamoyl)cyclohexyl 3-hydroxyazetidine-1-carboxylate] | ≤ 250 |
| COC(=O)CNC(=O)O[C@H]1CC[C@H](C(=O)N(C[C@H]2CC[C@H](c3ccc(OC)c(C)c3)CC2)c2cccc(-c3cnn(C4CC4)c3)c2)CC1 [Compound 7.17, Methyl 2-((((trans-4-((3-(1-cyclopropyl-1H-pyrazol-4-yl)phenyl)((trans-4-(4-methoxy-3-methylphenyl)cyclohexyl)methyl)carbamoyl)cyclohexyl)oxy)carbonyl)amino)acetate] | ≤ 250 |
| COc1ccc([C@H]2CC[C@H](CN(c3cccc(-c4cnn(C5CC5)c4)c3)C(=O)[C@H]3CC[C@H](OC(=O)NCC(=O)O)CC3)CC2)cc1C [Compound 7.18, 2-((((trans-4-((3-(1-Cyclopropyl-1H-pyrazol-4-yl)phenyl)((trans-4-(4-methoxy-3-methylphenyl)cyclohexyl)methyl)carbamoyl)cyclohexyl)oxy)carbonyl)amino)acetic acid] | ≤ 250 |
| COc1ccc([C@H]2CC[C@H](CN(c3cccc(-c4cnn(C5CC5)c4)c3)C(=O)[C@H]3CC[C@H](OC(=O)N4CC(O)C4)CC3)CC2)cc1C#N [Compound 7.19, trans-4-(((trans-4-(3-Cyano-4-methoxyphenyl)cyclohexyl)methyl)(3-(1-cyclopropyl-1H-pyrazol-4-yl)phenyl)carbamoyl)cyclohexyl 3-hydroxyazetidine-1-carboxylate] | ≤ 250 |
| COc1ccc([C@H]2CC[C@H](CN(c3cccc(-c4cnn(C(C)C)c4)c3)C(=O)[C@H]3CC[C@H](OC(=O)N4CC(O)C4)CC3)CC2)cc1C#N [Compound 7.20, trans-4-(((trans-4-(3-Cyano-4-methoxyphenyl)cyclohexyl)methyl)(3-(1-isopropyl-1H-pyrazol-4-yl)phenyl)carbamoyl)cyclohexyl 3-hydroxyazetidine-1-carboxylate] | ≤ 250 |

— US20220089575A1, “FARNESOID X RECEPTOR AGONISTS AND USES THEREOF” (Metacrine, Inc., priority 2017, published 2022)
